Experimental findings from ChEMBL document CHEMBL1148002, “Synthesis and evaluation of 2'-substituted cyclobutyl nucleosides and nucleotides as potential anti-HIV agents” (Bioorg Med Chem Lett, 2007) are described below.

Experiment [1] has as its target Human immunodeficiency virus type 1 reverse transcriptase (Human immunodeficiency virus 1, UniProt Q72547, M184I). Nature of the experiment: Inhibition of HIV reverse transcriptase M184I mutant in cell free assay.
Experiment [2] in a line: Inhibition of wild type HIV reverse transcriptase in cell free assay. Conditions: Human immunodeficiency virus.
A short description of experiment [3]: Inhibition of recombinant wild type HIV reverse transcriptase. Set-up: species or system Human immunodeficiency virus.
A short description of experiment [4]: Inhibition of HIV reverse transcriptase M184V mutant in cell free assay. As to conditions: Human immunodeficiency virus.

A word on the IC50: it is the midpoint of a concentration-inhibition curve.

For the molecule `Nc1ccn([C@@H]2CS[C@H](COP(=O)(O)OP(=O)(O)OP(=O)(O)O)O2)c(=O)n1` [LAMIVUDINE TRIPHOSPHATE], the IC50 in experiment [1] was greater than 10 µM; in experiment [2], 6.5 µM; in experiment [3], 3 µM; in experiment [4] it was greater than 10 µM.

As to `Nc1nc(=O)n([C@H]2C[C@@H](COP(=O)(O)OP(=O)(O)OP(=O)(O)O)C2)cc1F`, the IC50 in experiment [1] was 6.1 µM; in experiment [2], 6.9 µM; in experiment [3], 4.7 µM.
